The source of these data is PubChem BioAssay (NCI).

Some test systems named below: DMS 273 small cell lung; DMS 114 small cell lung; DLD-1 colon; KM20L2 colon; SNB-78 CNS; RXF-631 renal; P388 leukemia; MDA-MB-435; MDA-N; T-47D breast.
Common to all, as to assay: NCI tumour cell line growth inhibition, 48 h

The structures appear in SMILES notation. Where “and” joins values, the source holds several entries; their conditions need not be identical. Identical values can stand only once.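 Dose response: 5 concentrations. Exposure: 48 h. Format: 96-well plates. Endpoint: linear interpolation; highest concentration if not reached. Here, GI50 denotes the concentration required for 50% inhibition of growth. At the TGI there is no net growth.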 Some results are limits rather than exact numbers.

As to `CC(C)(CN1CCCCC1)C(=O)CC(SCCN)c1ccc(Cl)cc1` (centres undefined), the TGI amounted to 4.96 µM in the assay with DMS 273 small cell lung; 3.43 µM with DMS 114 small cell lung; 3.35 µM with DLD-1 colon; 5.43 µM in the assay on KM20L2 colon; 8.9 µM in the assay on SNB-78 CNS; 14.3 µM in the assay on RXF-631 renal.

`O=[N+]([O-])c1ccc(/C(Cl)=C/c2ccc(/C=C(\Cl)c3ccc([N+](=O)[O-])cc3[N+](=O)[O-])cc2)c([N+](=O)[O-])c1`: the TGI in the assay with DMS 273 small cell lung, in the assay with DMS 114 small cell lung, with DLD-1 colon, in the assay with SNB-78 CNS and with RXF-631 renal was over 100 µM in each case.

Turning to `CC(=O)SC(SC(C)=O)SC(C)=O`, the TGI in the assay with DMS 273 small cell lung, with DMS 114 small cell lung, with DLD-1 colon, with KM20L2 colon, in the assay with SNB-78 CNS and with RXF-631 renal was over 100 µM each time.

For the compound `CCc1cccc(CC)c1NC(=O)CC1SC(N)=NC1=O` (centres undefined), the TGI in the assay on DMS 273 small cell lung, in the assay on DMS 114 small cell lung, in the assay on SNB-78 CNS and in the assay on RXF-631 renal was over 100 µM each time.

With `O=c1nc(N2CCCC2)nc(N2CCCC2)s1`, the TGI in the assay on DMS 273 small cell lung, in the assay with DMS 114 small cell lung, in the assay with DLD-1 colon, in the assay with KM20L2 colon, in the assay on SNB-78 CNS and with RXF-631 renal was over 100 µM in each case.

For the compound `Cc1ccc(NC(=O)/C(=N\NC(N)=S)C(C#N)c2ccccc2C)cc1C` (centres undefined), the TGI with DMS 273 small cell lung, with DMS 114 small cell lung, with DLD-1 colon, with KM20L2 colon, with SNB-78 CNS and in the assay with RXF-631 renal was over 100 µM each time.

With `CCc1nc2ccccc2c(=O)n1/N=C(\N=Nc1ccc(Cl)cc1)c1ccccc1`, the TGI in the assay on DMS 273 small cell lung was 50 µM; in the assay on DMS 114 small cell lung, 59.3 µM; with DLD-1 colon, over 100 µM; in the assay with KM20L2 colon it was 27.7 µM; in the assay with SNB-78 CNS, 71.1 µM.

`C=C(COC(C)=O)CC(/C=C(\C)CC/C=C(\C)CO)OC(C)=O` (centres undefined): the TGI in the assay on DMS 273 small cell lung, in the assay with DLD-1 colon, with KM20L2 colon, with SNB-78 CNS and with RXF-631 renal was over 100 µM in each case.

Take `CCCCN(CCCC)CC(C(=O)Nc1ccc([N+](=O)[O-])cc1[N+](=O)[O-])/C(C)=N\NC(=O)C[N+](C)(C)C` (centres undefined): the TGI is 31.2 µM with DMS 273 small cell lung; over 100 µM in the assay with DMS 114 small cell lung; over 100 µM in the assay on DLD-1 colon; over 100 µM with KM20L2 colon; over 100 µM in the assay on SNB-78 CNS; over 100 µM in the assay on RXF-631 renal.

For `CC(=O)Oc1c(Br)ccc2cc(C(Br)Br)c(C(=O)c3ccccc3)nc12`, the TGI in the assay with DMS 273 small cell lung is 42.3 µM; in the assay with DMS 114 small cell lung, 49.6 µM; with DLD-1 colon, 51.5 µM; in the assay with KM20L2 colon, 42.2 µM; with SNB-78 CNS, 71.4 µM; with RXF-631 renal it was 47.6 µM.

For the compound `CCOC(=O)/C(=C/c1ccccc1Br)P(=O)(OCC)OCC`, the TGI in the assay with DMS 273 small cell lung stood at 3.04 µM; in the assay on DLD-1 colon it was 4.85 µM; in the assay with KM20L2 colon it was 5.67 µM; with RXF-631 renal, 8.45 µM.

For the compound `O=C(O)c1ccc(C(=O)O)c(C(=O)O)c1.[NH-]C1CCCCC1[NH-].[Pt+2]`, the GI50 in the assay on P388 leukemia was 0.262 µM; with DMS 273 small cell lung, 0.417 µM; in the assay with MDA-MB-435, 3.83 µM; with DLD-1 colon it was 5.25 µM; in the assay with KM20L2 colon, 0.768 µM; in the assay on SNB-78 CNS, 24.6 µM. Besides, the values for the GI50 with MDA-N and in the assay with T-47D breast were 1.15 µM and 6.58 µM, respectively. Moreover, the TGI with P388 leukemia was 14.6 µM; in the assay on DMS 273 small cell lung, 9.31 µM; in the assay with MDA-MB-435 it was 30.4 µM; in the assay on DLD-1 colon, over 87.4 µM; in the assay with KM20L2 colon it was 27.7 µM; in the assay with SNB-78 CNS it was 99.9 µM. The TGI in the assay with MDA-N turned out to be 24.7 µM; with T-47D breast, 67.2 µM.

In the case of `CC(=O)OCC1OC([Se-])C(OC(C)=O)C(OC(C)=O)C1OC(C)=O.N#CCC[PH+](CCC#N)CCC#N.[Au+]` (centres undefined), the GI50 in the assay with DMS 273 small cell lung is 4.09 µM; in the assay with DLD-1 colon, 7.78 µM; in the assay on KM20L2 colon, 7 µM; in the assay with SNB-78 CNS it was 20.1 µM; with RXF-631 renal it was 16 µM. Besides, the TGI was 49.7 µM with DMS 273 small cell lung; over 63.6 µM in the assay with DLD-1 colon; 41.1 µM in the assay on KM20L2 colon; 79.3 µM with SNB-78 CNS; over 100 µM in the assay on RXF-631 renal.

For `Cc1cc2c(cc1C)[n+](=O)c(C(=O)CC(=O)C(=O)Nc1ccccc1C(C)C)c(C)n2[O-]`, the TGI in the assay with DMS 273 small cell lung, with DMS 114 small cell lung, in the assay on KM20L2 colon, in the assay with SNB-78 CNS and in the assay with RXF-631 renal was over 100 µM in each case.

As for `COC1=CC(=O)OC(/C=C(C)/C=C/C2=C(C)CCCC2(C)C)C1` (centres undefined), the TGI in the assay on DMS 273 small cell lung, in the assay with DMS 114 small cell lung, with DLD-1 colon, in the assay with KM20L2 colon and in the assay on SNB-78 CNS was over 100 µM in each case.

Take `Fc1ccc(C2SCc3nc4ccccc4n32)cc1F` (centres undefined): the TGI in the assay on DMS 273 small cell lung is 97.9 µM; in the assay on DMS 114 small cell lung, 77.8 µM; with DLD-1 colon, over 100 µM; with KM20L2 colon, over 100 µM; with SNB-78 CNS, over 100 µM; with RXF-631 renal, over 100 µM.

`CC(=O)CC(=O)NC=O`: the TGI in the assay with DMS 273 small cell lung, in the assay on DMS 114 small cell lung, in the assay on DLD-1 colon, with KM20L2 colon, in the assay on SNB-78 CNS and in the assay with RXF-631 renal was over 100 µM throughout.

As for `C=C1c2[nH]c3ccccc3c2CC(C(=O)O)N1C(O)c1ccc(S(=O)(=O)O)cc1` (centres undefined), the TGI in the assay with DMS 273 small cell lung, with DMS 114 small cell lung, in the assay on DLD-1 colon, with SNB-78 CNS and with RXF-631 renal was over 100 µM throughout.

As to `O=C(N/C=C/C=C/Sc1ccccc1)OCc1ccccc1`, the TGI in the assay on DMS 273 small cell lung is 31.4 µM; with DMS 114 small cell lung, 32.3 µM; with DLD-1 colon, 29 µM; in the assay on KM20L2 colon it was 31 µM; in the assay with SNB-78 CNS, over 100 µM; with RXF-631 renal it was 39.3 µM.

Turning to `CC(=O)N(CCN1C(=O)c2ccccc2C1=O)CCN1C(=O)c2ccccc2C1=O`, the TGI in the assay with DMS 273 small cell lung, with DMS 114 small cell lung, in the assay on DLD-1 colon, with KM20L2 colon and in the assay with SNB-78 CNS was over 100 µM in each case.

For the compound `NC(CO)c1ccc(OCc2ccccc2)cc1` (centres undefined), the TGI in the assay on DMS 273 small cell lung, with DMS 114 small cell lung, in the assay on DLD-1 colon, with KM20L2 colon and in the assay on SNB-78 CNS was over 100 µM throughout.

Turning to `CCOC(=O)Nc1ccc2c(c1)N(C(=O)CCN(CC)CC)c1ccccc1S2`, the TGI in the assay with P388 leukemia is 32.2 µM; with DMS 273 small cell lung, > 68.8 µM and 77.9 µM; in the assay with DMS 114 small cell lung it was 40.6 µM and 99.6 µM; in the assay with DLD-1 colon, > 87.6 µM and 105 µM; with KM20L2 colon, 38.7 µM and 39.7 µM; with T-47D breast, 87.9 µM. In addition, the GI50 was 36.2 µM in the assay with DMS 114 small cell lung, 32.9 µM in the assay on DLD-1 colon, 13.9 µM in the assay on KM20L2 colon and 41 µM in the assay on SNB-78 CNS.

As for `NC(=S)N/N=C(\CCC(=O)Nc1ccccc1[N+](=O)[O-])CC(=O)c1ccco1`, the TGI in the assay on DMS 273 small cell lung, in the assay with DMS 114 small cell lung, in the assay with DLD-1 colon, in the assay with KM20L2 colon, with SNB-78 CNS and in the assay on RXF-631 renal was over 100 µM throughout.

Regarding `O=c1c(O)cc2c(O)oc3c(=O)c(O)c(O)c4c(O)oc1c2c43`, the TGI is over 100 µM in the assay with DMS 273 small cell lung; 67.7 µM in the assay with DMS 114 small cell lung; over 100 µM in the assay on DLD-1 colon; over 100 µM in the assay on KM20L2 colon; over 100 µM in the assay on SNB-78 CNS.

For the compound `C=CCC12CCC(=O)[C@@]1(C)CC=C(O)C2=O` (some centres undefined), the TGI in the assay with DMS 273 small cell lung, with DMS 114 small cell lung, with DLD-1 colon, in the assay on KM20L2 colon and in the assay on SNB-78 CNS was over 100 µM in each case.
